According to patent USRE45313E1, “Exendin variant peptides” (priority 1999, dated 2014):

Assays:
leucine aminopeptidase = biological target: T1, leucine aminopeptidase (Sus scrofa, UniProt P28839); test: In vitro stability in leucine aminopeptidase solution; conditions: pH 7.4
T1 sequence (P28839 1-519): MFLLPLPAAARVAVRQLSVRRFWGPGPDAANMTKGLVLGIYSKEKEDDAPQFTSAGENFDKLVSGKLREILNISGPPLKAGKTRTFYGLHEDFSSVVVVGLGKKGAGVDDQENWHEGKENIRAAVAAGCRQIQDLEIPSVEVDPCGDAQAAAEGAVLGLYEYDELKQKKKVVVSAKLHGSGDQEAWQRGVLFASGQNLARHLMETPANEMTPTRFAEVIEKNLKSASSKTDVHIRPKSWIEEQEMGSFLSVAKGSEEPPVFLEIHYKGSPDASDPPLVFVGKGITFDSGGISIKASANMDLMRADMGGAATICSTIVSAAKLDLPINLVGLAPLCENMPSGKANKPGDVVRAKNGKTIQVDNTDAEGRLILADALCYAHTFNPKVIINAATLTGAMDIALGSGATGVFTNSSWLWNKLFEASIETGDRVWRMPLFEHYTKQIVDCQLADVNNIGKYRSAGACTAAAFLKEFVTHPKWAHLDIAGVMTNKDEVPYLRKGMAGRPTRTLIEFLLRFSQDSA
Experimental: (§1) A SHT200D block heater from Stuart Scientific was used for heating of the peptide/enzyme solutions during the stability experiments. The degradation of the test compounds was studied at 37° C. in 50 mM phosphate buffer solutions of pH 7.4 containing leucine aminopeptidase (25 U/ml) or carboxypeptidase A (1 U/ml) or 100 mM ammoniumbicarbonate buffer of pH 8.0 containing dipeptidyl aminopeptidase IV (0.5 U/ml). Experiments were initiated by addition of an aliquot (100 μl) of a stock solution (1 mg/ml) of the peptide in water to 900 μl preheated enzyme solution in an Eppendorf microvial giving an initial concentration of 0.1 mg/ml (˜1.7·10−5-1.8·10−5 M) of the peptide. The peptide/enzyme solution was kept at 37° C. and at appropriate time intervals samples of 100 μl were withdrawn from the peptide/enzyme solution and mixed thoroughly with 20 μl 25% TFA in acetonitrile in order to stop the enzymatic degradation process. The inactivated samples were transferred to autosampler vials and analysed for content of intact test compound by HPLC as described below.
(§2) Samples from the stability experiments performed as described above were analysed by gradient HPLC analysis using the instrumentation described above and the following experimental conditions.
(§3) In vitro stability studies with the present peptides and peptide conjugates in the presence of selected proteolytic enzymes are applied as a tool for evaluating the protection of said peptides against proteolysis in vivo.
(§4) Water used was of highest quality obtained from a Milli-Q water treatment system (Millipore, Bedford, Mass., U.S.A.). Acetonitrile (ACN) was of super gradient quality obtained from Labscan Ltd. (Dublin, Ireland). […] Leucine aminopeptidase (EC 3.4.11.1), Carboxypeptidase A (EC 3.4.17.1) and Dipeptidyl peptidase (Dipeptidyl aminopeptidase IV, EC 3.4.14.5) were all obtained from Sigma (St. Louis, Mo., U.S.A.). Gradient HPLC analysis was done using a Hewlett Packard HP 1100 HPLC system consisting of a HP 1100 Binary Pump, a HP 1100 Autosampler, A HP 1100 Column Thermostat and a HP 1100 Variable Wavelength Detector. Hewlett Packard Chem-station for LC software (Rev. A.06.01) was used for instrument control and data acquisition. A Vydac 238TP54 (150×4.6 mm I.D.) column packed with 5 μm, C18, 300 Å

carboxypeptidase A = biological target: T2, carboxypeptidase A (Bos taurus, UniProt P00730); test: In vitro stability in carboxypeptidase A solution; conditions: pH 7.4
T2 sequence (P00730 111-419): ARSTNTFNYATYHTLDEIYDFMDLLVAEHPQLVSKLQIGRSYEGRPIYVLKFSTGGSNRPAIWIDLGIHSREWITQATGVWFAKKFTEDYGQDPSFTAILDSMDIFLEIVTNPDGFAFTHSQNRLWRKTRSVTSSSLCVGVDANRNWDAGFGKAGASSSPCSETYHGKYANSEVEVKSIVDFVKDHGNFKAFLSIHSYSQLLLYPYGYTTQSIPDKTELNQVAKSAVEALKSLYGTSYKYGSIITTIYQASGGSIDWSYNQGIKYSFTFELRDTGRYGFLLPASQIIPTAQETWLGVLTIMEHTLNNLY
Experimental: as §1, §2, §3, §4

[1] = biological target: dipeptidyl aminopeptidase IV (Sus scrofa, UniProt P22411); test: In vitro stability in dipeptidyl aminopeptidase IV solution; conditions: pH 8
Sequence of dipeptidyl aminopeptidase IV (P22411 whole entry): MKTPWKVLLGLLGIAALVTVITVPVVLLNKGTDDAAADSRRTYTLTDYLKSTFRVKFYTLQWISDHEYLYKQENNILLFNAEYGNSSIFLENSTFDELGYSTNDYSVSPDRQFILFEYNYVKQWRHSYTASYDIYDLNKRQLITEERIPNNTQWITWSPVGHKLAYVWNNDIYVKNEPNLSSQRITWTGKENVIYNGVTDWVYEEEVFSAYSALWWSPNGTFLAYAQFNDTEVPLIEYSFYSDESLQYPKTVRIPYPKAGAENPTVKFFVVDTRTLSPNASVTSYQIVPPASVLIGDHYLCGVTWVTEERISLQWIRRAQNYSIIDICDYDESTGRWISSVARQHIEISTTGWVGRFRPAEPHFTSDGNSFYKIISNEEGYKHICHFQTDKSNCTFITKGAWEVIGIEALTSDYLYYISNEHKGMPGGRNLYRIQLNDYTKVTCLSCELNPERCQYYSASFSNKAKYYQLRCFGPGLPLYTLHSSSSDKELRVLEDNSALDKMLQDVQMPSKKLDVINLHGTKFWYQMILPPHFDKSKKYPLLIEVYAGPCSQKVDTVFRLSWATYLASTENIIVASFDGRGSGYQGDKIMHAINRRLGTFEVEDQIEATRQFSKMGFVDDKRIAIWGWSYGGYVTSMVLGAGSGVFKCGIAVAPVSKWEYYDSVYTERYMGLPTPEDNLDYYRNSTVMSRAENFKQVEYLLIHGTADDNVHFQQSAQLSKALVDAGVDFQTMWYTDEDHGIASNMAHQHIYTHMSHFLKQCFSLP
Experimental: as §1, §2, §3, §4

[2] = biological target: T3, (Rattus norvegicus, UniProt P32301); conditions: inhibition of [^125I]GLP-1 binding; cited from earlier work
T3 construct: host or cells: brain tissue: nucleus of the solitary tract
T3 sequence (P32301 22-463): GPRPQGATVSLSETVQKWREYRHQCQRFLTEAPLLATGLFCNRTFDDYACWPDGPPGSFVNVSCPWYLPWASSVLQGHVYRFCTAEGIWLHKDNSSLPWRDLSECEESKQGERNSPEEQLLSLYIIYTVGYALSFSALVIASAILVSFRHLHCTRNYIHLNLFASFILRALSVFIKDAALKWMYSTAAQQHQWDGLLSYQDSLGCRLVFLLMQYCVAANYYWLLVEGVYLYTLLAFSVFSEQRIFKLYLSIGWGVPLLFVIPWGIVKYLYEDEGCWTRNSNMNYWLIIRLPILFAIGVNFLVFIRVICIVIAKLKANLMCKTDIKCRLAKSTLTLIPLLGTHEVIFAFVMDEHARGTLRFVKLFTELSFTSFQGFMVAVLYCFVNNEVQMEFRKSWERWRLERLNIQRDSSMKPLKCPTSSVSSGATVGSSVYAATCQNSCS

Compound	half-life at 0.1 mg/ml (leucine aminopeptidase)	half-life at 0.1 mg/ml (carboxypeptidase A)	half-life at 0.1 mg/ml [1]	Ki [2]
CC[C@H](C)[C@H](NC(=O)[C@H](Cc1ccccc1)NC(=O)[C@H](CCC(=O)O)NC(=O)[C@H](CCCCN)NC(=O)[C@H](C)NC(=O)[C@H](C)NC(=O)[C@H](CCC(N)=O)NC(=O)CNC(=O)[C@H](CCC(=O)O)NC(=O)[C@H](CC(C)C)NC(=O)[C@H](Cc1ccc(O)cc1)NC(=O)[C@H](CO)NC(=O)[C@H](CO)NC(=O)[C@@H](NC(=O)[C@H](CC(=O)O)NC(=O)[C@H](CO)NC(=O)[C@@H](NC(=O)[C@H](Cc1ccccc1)NC(=O)[C@@H](NC(=O)CNC(=O)[C@H](CCC(=O)O)NC(=O)[C@H](C)NC(=O)[C@@H](N)Cc1c[nH]cn1)[C@@H](C)O)[C@@H](C)O)C(C)C)C(=O)N[C@@H](C)C(=O)N[C@@H](Cc1c[nH]c2ccccc12)C(=O)N[C@@H](CC(C)C)C(=O)N[C@H](C(=O)N[C@@H](CCCCN)C(=O)NCC(=O)N[C@@H](CCCNC(=N)N)C(N)=O)C(C)C [GLP-1, H-hGLP-1(7-36)-NH2, reference compound]	152 min	48 min	2 min	
[Tyr39]exendin-4				9.4 nM
